Key:
[1] = biological target: T1, Adrenergic β2 (H292 cells) (Homo sapiens, UniProt P07550); experiment: Adrenergic β2 Mediated cAMP Production, single concentration 1 μM; type: cell-based; conditions: percentage of the maximum response generated by 1E-07M formoterol; for activation at 1 µM: NCI-H292, 1 μM compound, read-out: β2 (% effect at 1 μM)
T1 construct: endogenous in cells; host or cells: H292 cells
Protocol: The following experimental procedure was used to measure the beta-2% effect at 1 μM for the compounds of Examples 116-263. Adrenergic β2 Mediated cAMP Production Cell Preparation
H292 cells are grown in 225 cm2 flasks incubator at 37° C., 5% CO2 in RPMI medium containing 10% (v/v) FBS (foetal bovine serum) and 2 mM L-glutamine.
Compounds were prepared by an initial first dilution into DMSO to give 1 mM stock concentration. This was followed by a 1 in 10 dilution of the stock concentration (10 μl stock compound+90 μl DMSO) to give 0.1 mM compound.
A compound addition plate was prepared by making a further 1 in 25 dilution in assay buffer (HBSS solution containing 10 mM HEPES pH7.4 and 5 mM glucose) containing 4% dimethylsulfoxide. The final compound concentration in assay is 1 μM.
Adherent H292 cells are removed from tissue culture flasks by treatment with Accutase™ cell detachment solution for 15 minutes. Flasks are incubated for 15 minutes in a humidified incubator at 37° C., 5% CO2. Detached cells are re-suspended in RPMI media (containing 10% (v/v) FBS and 2 mM L-glutamine) at 0.1×10^6 cells per mL. 10000 cells in 100 μL are added to each well of a tissue-culture-treated 96-well plate and the cells incubated overnight in a humidified incubator at 37° C., 5% CO2. The culture media is removed and cells are washed twice with 100 μL assay buffer and replaced with 50 μL assay buffer (HBSS solution containing 10 mM HEPES pH7.4 and 5 mM glucose). Cells are rested at room temperature for 20 minutes after which time 25 μL of rolipram (1.2 mM made up in assay buffer) is added. Cells are incubated with rolipram for 10 minutes after which time 25 μl test compounds are added and the cells are incubated for 60 minutes at room temperature. The final rolipram concentration in the assay is 300 μM and final vehicle concentration is 1% (v/v) dimethylsulphoxide. The reaction is stopped by removing supernatants, washing once with 100 μL assay buffer and replacing with 50 μL lysis buffer. The cell monolayer is frozen at −80° C. for 30 minutes (or overnight).
AlphaScreen™ cAMP Detection
The concentration of cAMP (cyclic adenosine monophosphate) in the cell lysate is determined using AlphaScreen™ methodology. The frozen cell plate is thawed for 20 minutes on a plate shaker then 10 μL of the cell lysate is transferred to a 96-well white plate. 40 μL of mixed AlphaScreen™ detection beads (containing equal volumes of donor beads (pre-incubated with biotinylated cAMP in the dark for 30 minutes) and acceptor beads is added to each well and the plate incubated at room temperature for 3 hours in the dark. The AlphaScreen™ signal is measured using an EnVision spectrophotometer (Perkin-Elmer Inc.) with the recommended manufacturer's settings. Concentration of cAMP produced per well were calculated with reference to the cAMP standard curve determined in the same experiment and expressed as a percentage of the maximum response generated by 1E-07M formoterol.

[2] = biological target: T2, human muscarinic acetylcholine M3 receptor (M3-ACh) (Homo sapiens, UniProt P20309); experiment: Muscarinic 3 Receptor Binding Assay, % inhibition specific binding at 1 μM; conditions: 1 μM compound, % inhibition specific [3H]-NMS binding
T2 construct: expressed in transfected cells; host or cells: CHO-K1 (Chinese Hamster Ovary) cell membranes
T2 sequence (P20309 whole entry): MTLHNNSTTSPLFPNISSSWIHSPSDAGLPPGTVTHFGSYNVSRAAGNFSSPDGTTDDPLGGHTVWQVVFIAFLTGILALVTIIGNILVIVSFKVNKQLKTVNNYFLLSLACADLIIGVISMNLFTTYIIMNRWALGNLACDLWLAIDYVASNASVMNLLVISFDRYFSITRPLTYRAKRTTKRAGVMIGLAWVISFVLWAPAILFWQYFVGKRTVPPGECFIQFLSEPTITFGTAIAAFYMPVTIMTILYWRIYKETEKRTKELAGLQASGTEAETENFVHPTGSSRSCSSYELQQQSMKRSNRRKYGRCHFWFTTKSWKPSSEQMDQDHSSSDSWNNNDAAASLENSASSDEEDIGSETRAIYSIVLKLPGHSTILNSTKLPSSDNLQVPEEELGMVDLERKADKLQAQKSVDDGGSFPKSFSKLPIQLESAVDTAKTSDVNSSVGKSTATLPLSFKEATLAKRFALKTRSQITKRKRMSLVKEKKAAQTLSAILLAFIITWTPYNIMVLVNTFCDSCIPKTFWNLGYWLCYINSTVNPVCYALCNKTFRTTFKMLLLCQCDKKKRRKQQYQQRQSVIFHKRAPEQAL
Protocol: The following experimental procedure was used to determine the M3% inhibition at 1 μM of the compounds of Examples 116-263.
Muscarinic 3 Receptor Binding Assay
The activity (% inhibition specific binding) of compounds -on the M3 receptor is determined by competition binding of [^3H]N-methyl scopolamine (NMS) to CHO-K1 (Chinese Hamster Ovary) cell membranes expressing the human muscarinic acetylcholine M3 receptor (M3-ACh) in a scintillation proximity assay (SPA) format.
SPA beads are precoated with membranes and then incubated at 2 mg of beads per well with 1 μM compound of the invention, [^3H]NMS at 0.1 nM, quarter Kd (experimentally determined dissociation constant) and assay buffer (20 mM HEPES pH 7.4 containing 5 mM MgCl2). The assay is conducted in a final volume of 200 μL, in the presence of 1% (v/v) dimethyl sulphoxide (DMSO). Total binding of [^3H]NMS is determined in the absence of competing compound and non-specific binding of [^3H]NMS is determined in the presence of 1 μM atropine. The plates are incubated for 16 hours at room temperature and then read on Wallac Microbeta™ using a normalised ^3H protocol. The compound activity at 1 defined as % inhibition specific [^3H]-NMS binding, is determined.

T1 sequence (P07550 whole entry): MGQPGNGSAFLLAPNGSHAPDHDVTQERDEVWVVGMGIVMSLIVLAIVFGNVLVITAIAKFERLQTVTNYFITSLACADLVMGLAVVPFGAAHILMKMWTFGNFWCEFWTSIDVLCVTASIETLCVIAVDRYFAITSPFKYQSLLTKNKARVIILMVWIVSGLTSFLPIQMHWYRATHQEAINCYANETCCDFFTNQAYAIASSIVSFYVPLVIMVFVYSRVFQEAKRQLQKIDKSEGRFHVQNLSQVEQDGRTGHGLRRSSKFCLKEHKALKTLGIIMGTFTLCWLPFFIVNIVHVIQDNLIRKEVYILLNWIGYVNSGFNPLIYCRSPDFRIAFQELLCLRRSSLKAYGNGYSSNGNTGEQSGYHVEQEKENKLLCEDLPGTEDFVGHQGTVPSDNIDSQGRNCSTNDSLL

activation at 1 µM [1] [%]	inhibition at 1 µM [2] [%]	SMILES	β2 (% effect at 1 μM) ([1]; 1 μM compound) [%]	M3 (% inhibition at 1 μM) ([2]; 1 µM) [%]
116	4	Cc1n[nH]c(CC(=O)N2CCOC3(CCN(Cc4cc(F)cc(CCNC[C@H](O)c5ccc(O)c6[nH]c(=O)sc56)c4)CC3)C2)n1 [Example 134, (R)-7-(2-(3-fluoro-5-((4-(2-(3-methyl-1H-1,2,4-triazol-5-yl)acetyl)-1-oxa-4,9-diazaspiro[5.5]undecan-9-yl)methyl)phenethylamino)-1-hydroxyethyl)-4-hydroxybenzo[d]thiazol-2(3H)-one]	–	–
106	1	CCn1c(=O)n(CC(=O)N2CCOC3(CCN(Cc4cc(F)cc(CCNC[C@H](O)c5ccc(O)c6[nH]c(=O)sc56)c4)CC3)C2)c2ccccc21 [Example 135, (R)-7-(2-(3-((4-(2-(3-ethyl-2-oxo-2,3-dihydro-1H-benzo[d]imidazol-1-yl)acetyl)-1-oxa-4,9-diazaspiro[5.5]undecan-9-yl)methyl)-5-fluorophenethylamino)-1-hydroxyethyl)-4-hydroxybenzo[d]thiazol-2(3H)-one]	–	–
111	26	COc1ccc(OC)c(C(=O)N2CCOC3(CCN(Cc4cc(F)cc(CCNC[C@H](O)c5ccc(O)c6[nH]c(=O)sc56)c4)CC3)C2)c1 [Example 136, (R)-7-(2-(3-((4-(2,5-dimethoxybenzoyl)-1-oxa-4,9-diazaspiro[5.5]undecan-9-yl)methyl)-5-fluorophenethylamino)-1-hydroxyethyl)-4-hydroxybenzo[d]thiazol-2(3H)-one]	–	–
112	13	O=C(c1c[nH]c2ccccc12)N1CCOC2(CCN(Cc3cc(F)cc(CCNC[C@H](O)c4ccc(O)c5[nH]c(=O)sc45)c3)CC2)C1 [Example 137, (R)-7-(2-(3-((4-(1H-indole-3-carbonyl)-1-oxa-4,9-diazaspiro[5.5]undecan-9-yl)methyl)-5-fluorophenethylamino)-1-hydroxyethyl)-4-hydroxybenzo[d]thiazol-2(3H)-one]	–	–
92	27	O=C(c1ccc2[nH]ccc2c1)N1CCOC2(CCN(Cc3cc(F)cc(CCNC[C@H](O)c4ccc(O)c5[nH]c(=O)sc45)c3)CC2)C1 [Example 138, (R)-7-(2-(3-((4-(1H-indole-5-carbonyl)-1-oxa-4,9-diazaspiro[5.5]undecan-9-yl)methyl)-5-fluorophenethylamino)-1-hydroxyethyl)-4-hydroxybenzo[d]thiazol-2(3H)-one]	–	–
101	34	Cn1c(C(=O)N2CCOC3(CCN(Cc4cc(F)cc(CCNC[C@H](O)c5ccc(O)c6[nH]c(=O)sc56)c4)CC3)C2)cc2ccccc21 [Example 139, (R)-7-(2-(3-fluoro-5-((4-(1-methyl-1H-indole-2-carbonyl)-1-oxa-4,9-diazaspiro[5.5]undecan-9-yl)methyl)phenethylamino)-1-hydroxyethyl)-4-hydroxybenzo[d]thiazol-2(3H)-one]	–	–
109	76	O=C(c1ccc2cc[nH]c2c1)N1CCOC2(CCN(Cc3cc(F)cc(CCNC[C@H](O)c4ccc(O)c5[nH]c(=O)sc45)c3)CC2)C1 [Example 140, (R)-7-(2-(3-((4-(1H-indole-6-carbonyl)-1-oxa-4,9-diazaspiro[5.5]undecan-9-yl)methyl)-5-fluorophenethylamino)-1-hydroxyethyl)-4-hydroxybenzo[d]thiazol-2(3H)-one]	–	–
100	-3	CC(C)n1nnc2cc(C(=O)N3CCOC4(CCN(Cc5cc(F)cc(CCNC[C@H](O)c6ccc(O)c7[nH]c(=O)sc67)c5)CC4)C3)ccc21 [Example 142, (R)-7-(2-(3-fluoro-5-((4-(1-isopropyl-1H-benzo[d][1,2,3]triazole-5-carbonyl)-1-oxa-4,9-diazaspiro[5.5]undecan-9-yl)methyl)phenethylamino)-1-hydroxyethyl)-4-hydroxybenzo[d]thiazol-2(3H)-one]	–	–
108	2	Cc1ccc2nc(C)c(C(=O)N3CCOC4(CCN(Cc5cc(F)cc(CCNC[C@H](O)c6ccc(O)c7[nH]c(=O)sc67)c5)CC4)C3)n2c1 [Example 143, (R)-7-(2-(3-((4-(2,6-dimethylimidazo[1,2-a]pyridine-3-carbonyl)-1-oxa-4,9-diazaspiro[5.5]undecan-9-yl)methyl)-5-fluorophenethylamino)-1-hydroxyethyl)-4-hydroxybenzo[d]thiazol-2(3H)-one]	–	–
101	35	O=C(Cc1noc2ccccc12)N1CCOC2(CCN(Cc3cc(F)cc(CCNC[C@H](O)c4ccc(O)c5[nH]c(=O)sc45)c3)CC2)C1 [Example 144, (R)-7-(2-(3-((4-(2-(benzo[d]isoxazol-3-yl)acetyl)-1-oxa-4,9-diazaspiro[5.5]undecan-9-yl)methyl)-5-fluorophenethylamino)-1-hydroxyethyl)-4-hydroxybenzo[d]thiazol-2(3H)-one]	–	–
–	–	O=C(c1ccc(-c2ccccc2)cc1)N1CCOC2(CCN(Cc3cc(F)cc(CCNC[C@H](O)c4ccc(O)c5[nH]c(=O)sc45)c3)CC2)C1 [Example 145, (R)-7-(2-(3-((4-(biphenylcarbonyl)-1-oxa-4,9-diazaspiro[5.5]undecan-9-yl)methyl)-5-fluorophenethylamino)-1-hydroxyethyl)-4-hydroxybenzo[d]thiazol-2(3H)-one]	53	7
96	41	O=C(c1[nH]nc2c1CCCC2)N1CCOC2(CCN(Cc3cc(F)cc(CCNC[C@H](O)c4ccc(O)c5[nH]c(=O)sc45)c3)CC2)C1 [Example 146, (R)-7-(2-(3-fluoro-5-((4-(4,5,6,7-tetrahydro-2H-indazole-3-carbonyl)-1-oxa-4,9-diazaspiro[5.5]undecan-9-yl)methyl)phenethylamino)-1-hydroxyethyl)-4-hydroxybenzo[d]thiazol-2(3H)-one]	–	–
102	66	Cc1sccc1C(=O)N1CCOC2(CCN(Cc3cc(F)cc(CCNC[C@H](O)c4ccc(O)c5[nH]c(=O)sc45)c3)CC2)C1 [Example 147, (R)-7-(2-(3-fluoro-5-((4-(2-methylthiophene-3-carbonyl)-1-oxa 4,9-diazaspiro[5.5]undecan-9-yl)methyl)phenethylamino)-1-hydroxyethyl)-4-hydroxybenzo[d]thiazol-2(3H)-one]	–	–
104	4	O=C(c1ccc(-c2cc[nH]n2)cc1)N1CCOC2(CCN(Cc3cc(F)cc(CCNC[C@H](O)c4ccc(O)c5[nH]c(=O)sc45)c3)CC2)C1 [Example 148, (R)-7-(2-(3-((4-(4-(1H-pyrazol-3-yl)benzoyl)-1-oxa-4,9-diazaspiro[5.5]undecan-9-yl)methyl)-5-fluorophenethylamino)-1-hydroxyethyl)-4-hydroxybenzo[d]thiazol-2(3H)-one]	–	–

Source: patent publication US8148373B2, “Compounds” (AstraZeneca AB, priority 2008, dated 2012)
